ChEMBL document CHEMBL1122139, “Importance of the aromatic ring in adrenergic amines. 7. Comparison of the stereoselectivity of norepinephrine N-methyltransferase for aromatic vs. nonaromatic substrates and inhibitors” (J Med Chem, 1982)
Several values for one entry are separate records, joined by “and”; a condition that tells them apart may be missing. Equal values may be shown once.

T1: Phenylethanolamine N-methyltransferase (Bos taurus, UniProt P10938)
T1 sequence (P10938 whole entry): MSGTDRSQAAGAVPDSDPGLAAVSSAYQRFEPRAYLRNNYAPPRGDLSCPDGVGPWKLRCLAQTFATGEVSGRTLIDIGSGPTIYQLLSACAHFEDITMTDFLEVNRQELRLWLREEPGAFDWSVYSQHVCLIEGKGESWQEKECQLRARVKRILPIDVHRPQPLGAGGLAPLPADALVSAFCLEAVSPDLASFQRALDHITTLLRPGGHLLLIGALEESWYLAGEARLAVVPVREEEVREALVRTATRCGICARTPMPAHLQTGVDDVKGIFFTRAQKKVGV


Key:
[1] = biological target: T1, Phenylethanolamine N-methyltransferase; assay: (§1) Inhibitory activity against Norepinephrine N-methyl-transferase of bovine adrenal glands; assay type: tissue-based, Adrenal gland
[2] = Vmax value was calculated in terms of nmoles of product per mg of protein per minute
[3] = Vmax/Km x100 value of the compound
[4] = compound: NCC(O)C1CCCCCCC1; assay: as §1; assay type: tissue-based; details: Adrenal gland
[5] = compound: NC[C@@H](O)C1CCCCC1; assay: as §1; assay type: tissue-based; details: Adrenal gland
[6] = compound: NC[C@@H](O)C1CCCCCCC1; assay: as §1; assay type: tissue-based; details: Adrenal gland
[7] = compound: NC[C@@H](O)c1ccccc1; assay: as §1; assay type: tissue-based; details: Adrenal gland
[8] = compound: NC[C@H](O)C1CCCCC1; assay: as §1; assay type: tissue-based; details: Adrenal gland
[9] = compound: NC[C@H](O)C1CCCCCCC1; assay: as §1; assay type: tissue-based; details: Adrenal gland
[10] = compound: NC[C@H](O)c1ccccc1; assay: as §1; assay type: tissue-based; details: Adrenal gland

Molecule	Ki [1]	Vmax [2]	Vmax/Km x100 [3]	also measured
NCCC1CCCCC1	41 µM			
C[C@@H](N)c1ccccc1	1680 µM			
CC(N)Cc1ccccc1 (configuration not stated) [AMPHETAMINE]	740 µM			
NC[C@H](O)c1ccccc1		4.85 nmol/min/mg	1.69	
NCC(O)C1CCCCC1 (configuration not stated)		0.99 nmol/min/mg	2.47	
C[C@H](N)C1CCCCC1	44 µM			
CC(N)CC1CC=CCC1 (configuration not stated)	110 µM			
CC(N)CC1CCCCC1 (configuration not stated)	109 µM			
NC[C@@H](O)c1ccccc1 (stereo in doubt; 9a)		1.75 nmol/min/mg	1.62	
C[C@H](N)Cc1ccccc1 (stereo in doubt; 1c) [DEXTROAMPHETAMINE]	1380 µM			
C[C@@H](N)CC1CCCCC1	290 µM			
C[C@@H](N)CC1CCCCCCC1	157 µM			
NCC(O)C1CCCCCCC1 (configuration not stated)		0.27 nmol/min/mg	0.62	
NC[C@H](O)C1CCCCC1		1.85 nmol/min/mg	2.43	
NC[C@H](O)C1CCCCCCC1		0.38 nmol/min/mg	0.88	
C[C@H](N)Cc1ccccc1 (stereo in doubt; 1b) [DEXTROAMPHETAMINE]	422 µM			
NC[C@@H](O)C1CCCCCCC1		0.27 nmol/min/mg	0.67	
C[C@H](N)CC1CCCCCCC1	34 µM			
NC[C@@H](O)C1CCCCC1		0.64 nmol/min/mg	1.88	
NCCc1ccccc1 [PHENETHYLAMINE]	467 µM			
C[C@H](N)c1ccccc1	149 µM			
C[C@@H](N)C1CCCCC1	412 µM			
CC(N)c1ccccc1 (configuration not stated)	460 µM			
C[C@H](N)CC1CCCCC1	22 µM			
CC(N)CC1CCCCCCC1 (configuration not stated)	86 µM			
NC[C@@H](O)c1ccccc1 (stereo in doubt; 9b)		0.92 nmol/min/mg	0.93	
Phenylethanolamine N-methyltransferase (Bos taurus), P10938 (protein) MSGTDRSQAAGAVPDSDPGLAAVSSAYQRFEPRAYLRNNYAPPRGDLSCPDGVGPWKLRCLAQTFATGEVSGRTLIDIGSGPTIYQLLSACAHFEDITMTDFLEVNRQELRLWLREEPGAFDWSVYSQHVCLIEGKGESWQEKECQLRARVKRILPIDVHRPQPLGAGGLAPLPADALVSAFCLEAVSPDLASFQRALDHITTLLRPGGHLLLIGALEESWYLAGEARLAVVPVREEEVREALVRTATRCGICARTPMPAHLQTGVDDVKGIFFTRAQKKVGV				Km [4]: 43 µM; Km [5]: 34 µM; Km [6]: 40 µM; Km [7]: 96 µM and 108 µM; Km [8]: 76 µM; Km [9]: 43 µM; Km [10]: 286 µM
